According to patent publication US20020137929A1, “1 - (3-heterocyclylphenyl) isothiourea, -isourea, -guanidine and -amidine herbicidal agents” (Intellectual Property Department, BASF Aktiengesellschaft, priority 1998, published 2002):

Columns and labels:
[1] = tested on: TRZAWR (Wheat, Winter, cv Riband); assay: Preemergence herbicidal evaluation; format: in vivo, Triticum aestivum; conditions: preemergence, rated 4-5 weeks after treatment, 0-9 scale
In short: (§1)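 Steps: mix seeds into potting soil; plant atop ~1 inch soil; spray compound in aqueous acetone (~0.0156-0.500 kg/ha equivalent); maintain in greenhouse with watering; rate visually 0-9 versus control at 4-5 weeks.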

[2] = tested on: ORYSAT (Rice, Tebonnet); assay: Postemergence herbicidal evaluation; format: in vivo, Oryza sativa, (L.) Tebonnet; conditions: postemergence
In short: (§2)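 Each compound, dispersed in an acetone/water mix (50/50) carrying 0.5% TWEEN 20, is nozzle-sprayed at 40 psi on approximately two-week-old seedlings at about 0.0156–0.500 kg/ha. Plants are assessed 4–5 weeks afterward on a 0–9 scale relative to control; duplicate tests are averaged.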

[3] = tested on: ECHCG (Barnyardgrass); assay: Preemergence herbicidal evaluation; format: in vivo, Echinochloa crus-galli; conditions: preemergence, rated 4-5 weeks after treatment, 0-9 scale
In short: as §1

[4] = tested on: ZEAMX (Corn, Field); assay: Preemergence herbicidal evaluation; format: in vivo, Zea mays; conditions: preemergence, rated 4-5 weeks after treatment, 0-9 scale
In short: as §1

[5] = tested on: CHEAL (Lambsquarters, Common); assay: Postemergence herbicidal evaluation; format: in vivo, Chenopodium album; conditions: postemergence
In short: as §2

[6] = tested on: CYPIR (Rice Flatsedge); assay: Postemergence weed control under flooded paddy conditions; format: in vivo, Cyperus iria; conditions: postemergence weeds, rated 3 to 4 weeks after treatment
In short: (§3)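 Injury ratings (0–9 scale covering stand, vigor, malformation, size, chlorosis and overall appearance versus control) were made three to four weeks after treatment. Test material, about 0.0313 to 0.500 kg/ha a.i. in 50/50 v/v aqueous/acetone, was added to flood water 1.5 to 3 cm deep over 3 to 5 cm weeds and 1.5 to 2.5 leaf rice.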

[7] = tested on: CYPSE (Flatsedge); assay: as above; format: in vivo, Cyperus serotinus; conditions: postemergence weeds, rated 3 to 4 weeks after treatment
In short: as §3

[8] = tested on: IPOHE (Morningglory, Ivyleaf); assay: Preemergence herbicidal evaluation; format: in vivo, Ipomoea hederacea; conditions: preemergence, rated 4-5 weeks after treatment, 0-9 scale
In short: as §1

[9] = tested on: ECHCG (Barnyardgrass); assay: Postemergence herbicidal evaluation; format: in vivo, Echinochloa crus-galli; conditions: postemergence
In short: as §2

[10] = tested on: ABUTH (Velvetleaf); assay: Preemergence herbicidal evaluation; format: in vivo, Abutilon theophrasti; conditions: preemergence, rated 4-5 weeks after treatment, 0-9 scale
In short: as §1

[11] = tested on: IPOHE (Morningglory, Ivyleaf); assay: Postemergence herbicidal evaluation; format: in vivo, Ipomoea hederacea; conditions: postemergence
In short: as §2

[12] = tested on: ABUTH (Velvetleaf); assay: Postemergence herbicidal evaluation; format: in vivo, Abutilon theophrasti; conditions: postemergence
In short: as §2

[13] = tested on: ZEAMX (Corn, Field); assay: Postemergence herbicidal evaluation; format: in vivo, Zea mays; conditions: postemergence
In short: as §2

[14] = tested on: CASOB (Sicklepod); assay: Preemergence herbicidal evaluation; format: in vivo, Cassia obtusifolia; conditions: preemergence, rated 4-5 weeks after treatment, 0-9 scale
In short: as §1

[15] = tested on: SETVI (Foxtail, Green); assay: Postemergence herbicidal evaluation; format: in vivo, Setaria viridis; conditions: postemergence
In short: as §2

[16] = tested on: CHEAL (Lambsquarters, Common); assay: Preemergence herbicidal evaluation; format: in vivo, Chenopodium album; conditions: preemergence, rated 4-5 weeks after treatment, 0-9 scale
In short: as §1

[17] = tested on: GLXMAW (Soybean, Williams); assay: Preemergence herbicidal evaluation; format: in vivo, Glycine max, (L.) Merr. cv Williams; conditions: preemergence, rated 4-5 weeks after treatment, 0-9 scale
In short: as §1

C=CCN1C(=O)C(CC(=O)NS(=O)(=O)CC)SC1=Nc1cc(-n2c(=O)cc(C(F)(F)F)n(C)c2=O)c(F)cc1Cl (stereo not shown) [Compound 104, 3-Allyl-2-{{2-chloro-5-[3,6-dihydro-3-methyl-2,6-dioxo-4-(trifluoromethyl)-1(2H)-pyrimidinyl]-4-fluorophenyl}imino}-N-(ethylsulfonyl)-4-oxo-5-thiazolidineacetamide]
0.5: Herbicidal rating ORYSAT ([2]; rate 0.0313 kg/ha)
5.0: Herbicidal rating CHEAL ([5]; rate 0.1250 kg/ha) | Herbicidal rating CYPIR ([6]; Rate 0.0313 kg/ha)
3.0: IPOHE rating ([8]; 0.2500 kg/ha) | Herbicidal rating ECHCG ([9]; rate 0.1250 kg/ha) | ABUTH rating ([10]; 0.0625 kg/ha) | Herbicidal rating SETVI ([15]; rate 0.0625 kg/ha) | GLXMAW rating ([17]; 0.5000 kg/ha)
4.5: Herbicidal rating ZEAMX ([13]; rate 0.0156 kg/ha) | Herbicidal rating ZEAMX ([13]; rate 0.0313 kg/ha)
8.0: ABUTH rating ([10]; 0.1250 kg/ha) | Herbicidal rating ZEAMX ([13]; rate 0.1250 kg/ha)
2.0: Herbicidal rating ORYSAT ([2]; rate 0.1250 kg/ha) | ZEAMX rating ([4]; 0.5000 kg/ha) | Herbicidal rating CHEAL ([5]; rate 0.0313 kg/ha)
7.0: Herbicidal rating ABUTH ([12]; rate 0.0156 kg/ha) | Herbicidal rating ABUTH ([12]; rate 0.0313 kg/ha)
4.0: Herbicidal rating CHEAL ([5]; rate 0.0625 kg/ha) | Herbicidal rating SETVI ([15]; rate 0.1250 kg/ha)
1.0: TRZAWR rating ([1]; 0.5000 kg/ha) | Herbicidal rating ORYSAT ([2]; rate 0.0625 kg/ha) | ECHCG rating ([3]; 0.2500 kg/ha) | ECHCG rating ([3]; 0.5000 kg/ha)
9.0: Herbicidal rating CYPIR ([6]; Rate 0.0625 kg/ha) | Herbicidal rating CYPIR ([6]; Rate 0.1250 kg/ha) | Herbicidal rating CYPIR ([6]; Rate 0.2500 kg/ha) | IPOHE rating ([8]; 0.5000 kg/ha) | ABUTH rating ([10]; 0.2500 kg/ha) | ABUTH rating ([10]; 0.5000 kg/ha) | Herbicidal rating IPOHE ([11]; rate 0.0156 kg/ha) | Herbicidal rating IPOHE ([11]; rate 0.0313 kg/ha) | Herbicidal rating IPOHE ([11]; rate 0.0625 kg/ha) | Herbicidal rating IPOHE ([11]; rate 0.1250 kg/ha) | Herbicidal rating ABUTH ([12]; rate 0.0625 kg/ha) | Herbicidal rating ABUTH ([12]; rate 0.1250 kg/ha) | CHEAL rating ([16]; 0.1250 kg/ha) | CHEAL rating ([16]; 0.2500 kg/ha) | CHEAL rating ([16]; 0.5000 kg/ha)
6.0: Herbicidal rating ZEAMX ([13]; rate 0.0625 kg/ha)
0.0: TRZAWR rating ([1]; 0.0625 kg/ha) | TRZAWR rating ([1]; 0.1250 kg/ha) | TRZAWR rating ([1]; 0.2500 kg/ha) | Herbicidal rating ORYSAT ([2]; rate 0.0156 kg/ha) | ECHCG rating ([3]; 0.0625 kg/ha) | ECHCG rating ([3]; 0.1250 kg/ha) | ZEAMX rating ([4]; 0.0625 kg/ha) | ZEAMX rating ([4]; 0.1250 kg/ha) | ZEAMX rating ([4]; 0.2500 kg/ha) | Herbicidal rating CHEAL ([5]; rate 0.0156 kg/ha) | Herbicidal rating CYPSE ([7]; Rate 0.0313 kg/ha) | Herbicidal rating CYPSE ([7]; Rate 0.1250 kg/ha) | Herbicidal rating CYPSE ([7]; Rate 0.2500 kg/ha) | IPOHE rating ([8]; 0.0625 kg/ha) | IPOHE rating ([8]; 0.1250 kg/ha) | Herbicidal rating ECHCG ([9]; rate 0.0156 kg/ha) | Herbicidal rating ECHCG ([9]; rate 0.0313 kg/ha) | Herbicidal rating ECHCG ([9]; rate 0.0625 kg/ha) | CASOB rating ([14]; 0.0625 kg/ha) | CASOB rating ([14]; 0.1250 kg/ha) | CASOB rating ([14]; 0.2500 kg/ha) | CASOB rating ([14]; 0.5000 kg/ha) | Herbicidal rating SETVI ([15]; rate 0.0156 kg/ha) | Herbicidal rating SETVI ([15]; rate 0.0313 kg/ha) | CHEAL rating ([16]; 0.0625 kg/ha) | GLXMAW rating ([17]; 0.0625 kg/ha) | GLXMAW rating ([17]; 0.1250 kg/ha) | GLXMAW rating ([17]; 0.2500 kg/ha)
